Assay results reported in patent US8877748B2, “Heterocyclic fused anthraquinone derivatives, manufacturing method and pharmaceutical composition using thereof” (National Defense Medical Center, priority 2012, dated 2014).

Key:
[1] = system: PC-3 prostate cancer cell line; test: SRB assay cell viability, PC-3 prostate cancer cell line; type: cell-based, human; settings: Homo sapiens, PC-3 prostate cancer cell line, Table II prints no unit, μM printed, read-out: SRB assay: 50% inhibition of cancer cell proliferation of sample concentration (IC50) of PC-3 prostate cancer cell line
[2] = system: HL-60, TB; test: NCI one-dose screening, leukemia HL-60, TB; type: cell-based, human; settings: 10 μM
[3] = system: MOLT-4; test: NCI one-dose screening, leukemia MOLT-4; type: cell-based, human; settings: 10 μM
[4] = system: SR; test: NCI one-dose screening, leukemia SR; type: cell-based, human; settings: 10 μM
[5] = system: PRMI-8226 cell line; test: NCI one-dose screening, leukemia PRMI-8226; type: cell-based, human; settings: 10 μM
[6] = system: K562cell line; test: NCI one-dose screening, leukemia K562; type: cell-based, human; settings: 10 μM
[7] = system: EKVX; test: NCI one-dose screening, non-small cell lung cancer EKVX; type: cell-based, human; settings: 10 μM
[8] = system: HOP-62; test: NCI one-dose screening, non-small cell lung cancer HOP-62; type: cell-based, human; settings: 10 μM
[9] = system: HOP-92; test: NCI one-dose screening, non-small cell lung cancer HOP-92; type: cell-based, human; settings: 10 μM
[10] = system: NCI-H226; test: NCI one-dose screening, non-small cell lung cancer NCI-H226; type: cell-based, human; settings: 10 μM
[11] = system: NCI-H23; test: NCI one-dose screening, non-small cell lung cancer NCI-H23; type: cell-based, human; settings: 10 μM
[12] = system: NCI-H460; test: NCI one-dose screening, non-small cell lung cancer NCI-H460; type: cell-based, human; settings: 10 μM
[13] = system: NCI-H522; test: NCI one-dose screening, non-small cell lung cancer NCI-H522; type: cell-based, human; settings: 10 μM
[14] = system: A549/ATCC; test: NCI one-dose screening, non-small cell lung cancer A549/ATCC; type: cell-based, human; settings: 10 μM
[15] = system: COLO 205; test: NCI one-dose screening, colon cancer COLO 205; type: cell-based, human; settings: 10 μM
[16] = system: HCC-2998; test: NCI one-dose screening, colon cancer HCC-2998; type: cell-based, human; settings: 10 μM
[17] = system: HCT-116; test: NCI one-dose screening, colon cancer HCT-116; type: cell-based, human; settings: 10 μM
[18] = system: HCT-15; test: NCI one-dose screening, colon cancer HCT-15; type: cell-based, human; settings: 10 μM
[19] = system: KM12; test: NCI one-dose screening, colon cancer KM12; type: cell-based, human; settings: 10 μM
[20] = system: HT29; test: NCI one-dose screening, colon cancer HT29; type: cell-based, human; settings: 10 μM
[21] = system: SF-268; test: NCI one-dose screening, CNS cancer SF-268; type: cell-based, human; settings: 10 μM
[22] = system: SF-539; test: NCI one-dose screening, CNS cancer SF-539; type: cell-based, human; settings: 10 μM
[23] = system: SNB-19; test: NCI one-dose screening, CNS cancer SNB-19; type: cell-based, human; settings: 10 μM
[24] = system: SNB-75; test: NCI one-dose screening, CNS cancer SNB-75; type: cell-based, human; settings: 10 μM
[25] = system: U251; test: NCI one-dose screening, CNS cancer U251; type: cell-based, human; settings: 10 μM
[26] = system: LOX IMVI; test: NCI one-dose screening, melanoma LOX IMVI; type: cell-based, human; settings: 10 μM
[27] = system: MALME-3M; test: NCI one-dose screening, melanoma MALME-3M; type: cell-based, human; settings: 10 μM
[28] = system: M14; test: NCI one-dose screening, melanoma M14; type: cell-based, human; settings: 10 μM
[29] = system: UACC-62; test: NCI one-dose screening, melanoma UACC-62; type: cell-based, human; settings: 10 μM
[30] = system: UACC-257; test: NCI one-dose screening, melanoma UACC-257; type: cell-based, human; settings: 10 μM
[31] = system: SK-MEL-2; test: NCI one-dose screening, melanoma SK-MEL-2; type: cell-based, human; settings: 10 μM
[32] = system: SK-MEL-28; test: NCI one-dose screening, melanoma SK-MEL-28; type: cell-based, human; settings: 10 μM
[33] = system: SK-MEL-5; test: NCI one-dose screening, melanoma SK-MEL-5; type: cell-based, human; settings: 10 μM
[34] = system: IGROV1; test: NCI one-dose screening, ovarian cancer IGROV1; type: cell-based, human; settings: 10 μM
[35] = system: OVCAR-3; test: NCI one-dose screening, ovarian cancer OVCAR-3; type: cell-based, human; settings: 10 μM
[36] = system: OVCAR-5; test: NCI one-dose screening, ovarian cancer OVCAR-5; type: cell-based, human; settings: 10 μM
[37] = system: OVCAR-8; test: NCI one-dose screening, ovarian cancer OVCAR-8; type: cell-based, human; settings: 10 μM
[38] = system: SK-OV-3; test: NCI one-dose screening, ovarian cancer SK-OV-3; type: cell-based, human; settings: 10 μM
[39] = system: 786-O; test: NCI one-dose screening, renal cancer 786-O; type: cell-based, human; settings: 10 μM
[40] = NCI one-dose screening, renal cancer A489; type: cell-based, human; settings: 10 μM
[41] = system: ACHN; test: NCI one-dose screening, renal cancer ACHN; type: cell-based, human; settings: 10 μM
[42] = system: SN12C; test: NCI one-dose screening, renal cancer SN12C; type: cell-based, human; settings: 10 μM
[43] = system: TK-10; test: NCI one-dose screening, renal cancer TK-10; type: cell-based, human; settings: 10 μM
[44] = system: UO-31; test: NCI one-dose screening, renal cancer UO-31; type: cell-based, human; settings: 10 μM
[45] = system: RXF, 393; test: NCI one-dose screening, renal cancer RXF, 393; type: cell-based, human; settings: 10 μM
[46] = system: DU145; test: NCI one-dose screening, prostate cancer DU145; type: cell-based, human; settings: 10 μM
[47] = system: PC-3; test: NCI one-dose screening, prostate cancer PC-3; type: cell-based, human; settings: 10 μM
[48] = system: MCF7; test: NCI one-dose screening, breast cancer MCF7; type: cell-based, human; settings: 10 μM
[49] = system: HS 578-T; test: NCI one-dose screening, breast cancer HS 578-T; type: cell-based, human; settings: 10 μM; Breast cancer
[50] = system: MDA-MB-231/ATCC; test: NCI one-dose screening, breast cancer MDA-MB-231/ATCC; type: cell-based, human; settings: 10 μM
[51] = system: MDA-MB-468; test: NCI one-dose screening, breast cancer MDA-MB-468; type: cell-based, human; settings: 10 μM
[52] = system: NCl/ADR-RES; test: NCI one-dose screening, breast cancer NCl/ADR-RES; type: cell-based, human; settings: 10 μM; listed under Ovarian cancer
[53] = system: BT-549; test: NCI one-dose screening, breast cancer BT-549; type: cell-based, human; settings: 10 μM
[54] = system: T-47D; test: NCI one-dose screening, breast cancer T-47D; type: cell-based, human; settings: 10 μM
[55] = system: MDA, -MB-435; test: NCI one-dose screening, breast cancer MDA, -MB-435; type: cell-based, human; settings: 10 μM; listed under Melanoma
[56] = system: human tumor cell lines; test: NCI one-dose screening, Mean / Delta / Range of growth percent over all tested cell lines; type: cell-based; settings: 10 μM

COc1cccc(Sc2cc3c(c4nsnc24)C(=O)c2ccccc2C3=O)c1 [C46, 4-(3-methoxy-phenyl-thio)anthra[2,1-c] [1,2,5]thiadiazol-6,11-dione]
IC50 [1]: > 15 µM | Growth Percent HL-60(TB) [2]: 84.53% | Growth Percent MOLT-4 [3]: 35.83% | Growth Percent SR [4]: 36.14% | Growth Percent RPMI-8226 [5]: 52.03% | Growth Percent K562 [6]: 38.52% | Growth Percent EKVX [7]: 104.94% | Growth Percent HOP-62 [8]: 61.81% | Growth Percent HOP-92 [9]: 100.52% | Growth Percent NCI-H226 [10]: 95.26% | Growth Percent NCI-H23 [11]: 76.42% | Growth Percent NCI-H460 [12]: 100.27% | Growth Percent NCI-H522 [13]: 82.41% | Growth Percent A549/ATCC [14]: 109.52% | Growth Percent COLO 205 [15]: 109.57% | Growth Percent HCC-2998 [16]: 104.94% | Growth Percent HCT-116 [17]: 85.66% | Growth Percent HCT-15 [18]: 71.89% | Growth Percent KM12 [19]: 97.06% | Growth Percent HT29 [20]: 105.25% | Growth Percent SF-268 [21]: 89.75% | Growth Percent SF-539 [22]: 107.05% | Growth Percent SNB-19 [23]: 105.92% | Growth Percent SNB-75 [24]: 81.80% | Growth Percent U251 [25]: 100.67% | Growth Percent LOX IMVI [26]: 70.96% | Growth Percent MALME-3M [27]: 113.06% | Growth Percent M14 [28]: 94.23% | Growth Percent UACC-62 [29]: 87.72% | Growth Percent UACC-257 [30]: 104/27 | Growth Percent SK-MEL-2 [31]: 82.62% | Growth Percent SK-MEL-28 [32]: 101.77% | Growth Percent SK-MEL-5 [33]: 100.11% | Growth Percent IGROV1 [34]: 99.91% | Growth Percent OVCAR-3 [35]: 85.83% | Growth Percent OVCAR-5 [36]: 122.58% | Growth Percent OVCAR-8 [37]: 97.32% | Growth Percent SK-OV-3 [38]: 110.30% | Growth Percent 786-0 [39]: 102.97% | Growth Percent A498 [40]: 83.74% | Growth Percent ACHN [41]: 98.70% | Growth Percent SN12C [42]: 95.93% | Growth Percent TK-10 [43]: 130.80% | Growth Percent UO-31 [44]: 75.49% | Growth Percent RXF 393 [45]: 124.15% | Growth Percent DU145 [46]: 98.87% | Growth Percent PC-3 [47]: 75.99% | Growth Percent MCF7 [48]: 72.77% | Growth Percent HS 578T [49]: 93.84% | Growth Percent MDA-MB-231/ATCC [50]: 87.08% | Growth Percent MDA-MB-468 [51]: 93.53% | Growth Percent NCI/ADR-RES [52]: 92.67% | Growth Percent BT-549 [53]: 94.91% | Growth Percent T-47D [54]: 69.09% | Growth Percent MDA-MB-435 [55]: 72.50% | Growth Percent Delta ([56]; delta over all cell lines): 55.47% | Growth Percent Mean ([56]; mean over all cell lines): 91.30% | Growth Percent Range ([56]; range over all cell lines): 94.97%
